{"source": "patent US20190175534A1", "about": "“PHARMACEUTICAL COMPOSITIONS COMPRISING DGLA AND USE OF SAME” (DS Biopharma Limited, priority 2016, published 2019)", "key": {"[1]": {"assay": "Phase 1 food effect on single-dose plasma pharmacokinetics (1000 mg, fasted vs fed)", "assay_type": "in vivo, human", "description": "The effect of food on the PK of an orally administered single dose of DS107G capsule in healthy subjects; and\nSubjects were randomly assigned in a 3:1 ratio of DG107G to placebo by block randomization. Single dose part one of the study comprised three cohorts of eight subjects each, with the addition of Cohort four based on evaluation of the safety data of Cohort three by the Safety Monitoring Committee (SMC). A single oral dose of DS107G or matching placebo was administered to fasted subjects in Cohorts one to three (500, 1000, and 2000 mg, respectively) in parallel; subjects in Cohort four were administered a dose of 4000 mg following completion of Cohort three. Subjects in Cohort two received 1000 mg or matching placebo in the fed state at ≥14 days after the first dose.\nFood effect was evaluated in Cohort two at least 14 days after the first dose at which time a second single dose was administered, Subjects were administered a 1000-mg dose of study drug with 240 mL of water after a 10-hour fasting period and 30 minutes after starting consumption of a meal. Subjects then refrained from food intake for at least 4 hours after dosing, Food consumption was standardized for at least 12 hours after dosing using a standardized high-fat meal (800 to 1000 kcal with 500 to 600 kcal from fat and 250 kcal from carbohydrates). A typical standard test meal consisted of two eggs fried in butter, two strips of bacon, two slices of toast with butter, 120 mL of hash brown potatoes, and 240 mL of whole milk.\nSubjects in Cohort two undergoing evaluation of the food effect on oral 1000 mg DGLA capsules were restricted from food consumption for at least 4 hours after dosing. Food consumption was standardized for at least 12 hours post dose using a standardized high-fat meal."}, "[2]": {"tested_on": "spontaneous hypertensive rats", "assay": "Arterial pressure in spontaneous hypertensive rats after seven days of gavage, with intravenous phenylephrine challenge", "assay_type": "in vivo, rat", "details": "DGLA 50 or 500 mg/kg alone; effect eliminated by aspirin", "protocol": "An in vivo investigation of anti-hypertension efficacy following co-administration of DGLA and aspirin in spontaneous hypertensive rats was conducted. This experiment investigated the efficacy of DGLA when co-administered chronically with aspirin to reduce the hypertensive response induced acutely by phenylephrine in spontaneous hypertensive rats. Spontaneously hypertensive adult male rats (250-300 g), bred by Charles River Laboratories, were used for this assay. […] The animals were pair-housed by group (low dose+aspirin, high dose+aspirin or aspirin alone) for the duration of the oral gavage prior to surgery.\nThe test article was formulated using olive oil as the vehicle. This stock solution was then administered by oral gavage once per day for seven consecutive days. A low and a high dose (50 mg/kg and 500 mg/kg) were tested.\nA 5 mg/ml stock solution of aspirin was prepared by dissolving the appropriate amount of aspirin in 100% DMSO which was then diluted in water. The concentration of DMSO was less than 1%. The appropriate volume was administered by oral gavage to each animal once per day for seven consecutive days. The stock solution was stored at room temperature and was considered stable for the duration of the gavage.\nThe appropriate volume was administered to each animal by an intravenous injection at the end of the experiment on the surgery day. The stock solution was stored at 4° C. and was considered stable for the duration of the experiment.\nMale spontaneous hypertensive rats weighing approximately 300 g arrived at the facility at least two days before beginning the oral gavage. Animals were assigned to one of three groups (low dose+aspirin, high dose+aspirin, and aspirin), and were pair-housed during the acclimation period. […]\nRats were anesthetized with a 2.5-3.0% isoflurane-O2 mixture in an induction box. […] Blood pressure, systemic arterial pressure (SAP), and heart rate were monitored continuously for a total of half an hour. Hypertension was detected as an increase in diastolic, systolic or mean blood pressure. […]"}}, "data": [{"smiles": "CCCCC/C=C\\C/C=C\\C/C=C\\CCCCCCC(=O)O", "note": "[DGLA, Dihomo gamma linolenic acid]", "values": [{"measurement": "Free DGLA Cmax occurred sooner under fasted than fed conditions (median)", "setting": "[1]; single 1000 mg dose", "result": 1, "unit": "h"}, {"measurement": "Mean baseline-corrected free DGLA Cmax, fasted over fed", "setting": "[1]; single 1000 mg dose", "result": "about 3 fold"}, {"measurement": "Mean baseline-corrected total DGLA AUC0-24, fasted over fed", "setting": "[1]; single 1000 mg dose", "result": "about 1,8 fold"}, {"measurement": "Mean baseline-corrected total DGLA Cmax, fasted over fed", "setting": "[1]; single 1000 mg dose", "result": "about 1.5 fold"}, {"measurement": "Mean free DGLA baseline-corrected AUC0-24, fasted over fed", "setting": "[1]; single 1000 mg dose", "result": "about 2 fold"}, {"measurement": "Mean baseline-corrected AUC0-24, total DGLA over free DGLA", "setting": "[1]; single 1000 mg dose, fasted", "result": "~54", "unit": "fold"}, {"measurement": "Mean baseline-corrected Cmax, total DGLA over free DGLA", "setting": "[1]; single 1000 mg dose, fasted", "result": "~10", "unit": "fold"}, {"measurement": "Mean baseline-corrected AUC0-24, total DGLA over free DGLA", "setting": "[1]; single 1000 mg dose, fed", "result": "~56", "unit": "fold"}, {"measurement": "Mean baseline-corrected Cmax, total DGLA over free DGLA", "setting": "[1]; single 1000 mg dose, fed", "result": "~20", "unit": "fold"}, {"measurement": "Rate and extent of total DGLA absorption (mean Cmax and AUC0-24), fasted higher than fed", "setting": "[1]; single 1000-mg dose", "result": "approximately 50%"}, {"measurement": "Effect on arterial pressure in spontaneously hypertensive rats", "setting": "[2]", "result": "successfully decreases the arterial pressure"}]}]}
